Like-named read-outs stand apart in the source and are kept apart here.
What was measured:
[1] = test system: 293-T-Rex cells expressing murine IDO; test: Toxicity / cell viability (LD50) in the murine IDO cell based assay
[2] = target: human IDO (Homo sapiens, UniProt P14902); test: Cell based IDO/kynurenine assay in IDO-293-T-Rex cells; conditions: kynurenine production, 293T cells expressing human IDO
Procedure, shortened: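 293-T-REx cells stably carrying doxycycline-inducible human or murine IDO were incubated with inhibitors in induction medium for 16 h at 37° C. Medium was TCA-treated at 60° C and reacted with p-dimethylaminobenzaldehyde. Kynurenine was quantified by absorbance at 480 nm.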

[3] = target: T1, murine IDO (Mus musculus, UniProt P28776); test: Cell based IDO/kynurenine assay in 293-T-Rex cells expressing murine IDO
T1 construct: expressed in transfected cells; host or cells: 293-T-REx cells (Invitrogen), doxycycline-inducible CMV-tet promoter
Procedure: Transfected cells were selected in DBZ medium (DMEM, 10% FBS, 1× Penicillin+Streptomycin, 2 mM L-glutamine, 5 μg/mL blasticidin and 25 μg/ml Zeocin) at 37° C. with a 5% CO2 in air atmosphere. Individual clones were isolated by limiting dilution cloning from these populations.
The cells incubated in Neutral medium serve as negative control of the assay. The cells incubated in Induction medium and without inhibitor serve as the positive control of the assay. The incubation is carried out for 16 h at 37° C. in a cell culture incubator. 200 μL of medium are transferred to U-bottom polypropylene 96-well plates containing 25 μL of 30% TCA, incubated 30 minutes at 60° C. and centrifuged at 3400 g for 5 minutes. 150 μL of the clear supernatant is transferred to a polystyrene 96-well plate containing 50 μL of 4% (w/v) of p-dimethylaminobenzaldehyde in acetic acid, incubated for 10 min. Kynurenine concentration is determined by measuring the absorbance at 480 nm.

[4] = target: purified human IDO protein (Homo sapiens, UniProt P14902); test: Enzymatic IDO assay (kynurenine production, absorbance 480 nm); conditions: recombinant human IDO, enzymatic activity
[5] = test system: IDO-293-T-Rex cells
Procedure: To measure the toxicity of each compound after 16 h incubation with cells, cell viability is measured via a WST-1 assay (Roche) according to instructions from the manufacturer. Briefly, after the incubation with each compound, medium is aspirated and replaced with […] of WST-1 reagent, and incubated 30 min at 37° C. Absorbance at 540 nm is correlated with the number of viable cells. Determination of IC50 (Kynurenine assay) or LD50 (WST-1 assay) is performed via non-linear regression analysis using GraphPad Prism software.
Viability was measure by the WST assay as described in one of the examples.

[6] = Table 16, cell viability loss, murine IDO cell based assay
[7] = Table 16, cells expressing murine IDO, read-out: mIDO EC50
[8] = Table 16, 50% cell viability loss, WST assay, human IDO cell based assay
[9] = Table 15, cell viability loss, murine IDO cell based assay
[10] = Table 15, cells expressing murine IDO, read-out: mIDO EC50
[11] = Table 15, 50% cell viability loss, WST assay, human IDO cell based assay

purified human IDO protein, sequence (P14902 whole entry P110S/E119G): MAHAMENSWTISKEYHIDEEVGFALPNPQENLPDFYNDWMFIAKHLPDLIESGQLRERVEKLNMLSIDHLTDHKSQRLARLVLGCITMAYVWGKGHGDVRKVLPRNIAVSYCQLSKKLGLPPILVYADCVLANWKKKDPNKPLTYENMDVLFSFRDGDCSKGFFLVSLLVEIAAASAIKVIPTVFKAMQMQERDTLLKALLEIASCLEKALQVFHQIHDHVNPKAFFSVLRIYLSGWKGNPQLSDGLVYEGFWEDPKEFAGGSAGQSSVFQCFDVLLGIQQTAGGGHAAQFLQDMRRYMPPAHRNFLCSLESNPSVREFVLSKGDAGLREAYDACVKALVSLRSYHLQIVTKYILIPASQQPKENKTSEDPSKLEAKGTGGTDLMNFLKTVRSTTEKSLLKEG
T1 sequence (P28776 whole entry): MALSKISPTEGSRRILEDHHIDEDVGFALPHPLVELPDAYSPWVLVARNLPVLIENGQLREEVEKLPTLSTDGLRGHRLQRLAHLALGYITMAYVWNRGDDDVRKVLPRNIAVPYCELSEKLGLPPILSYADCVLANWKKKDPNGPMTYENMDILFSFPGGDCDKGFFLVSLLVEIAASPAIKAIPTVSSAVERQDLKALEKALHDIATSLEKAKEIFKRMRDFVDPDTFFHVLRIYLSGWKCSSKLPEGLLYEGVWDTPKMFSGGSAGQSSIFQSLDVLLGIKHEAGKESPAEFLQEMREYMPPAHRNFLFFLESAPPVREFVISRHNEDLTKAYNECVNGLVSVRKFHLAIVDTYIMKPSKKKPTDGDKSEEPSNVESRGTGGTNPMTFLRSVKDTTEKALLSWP
human IDO, sequence (P14902 whole entry): as the sequence (P14902 whole entry P110S/E119G) above, with S110P, G119E counted along it

Compound | EC50 ([2]; Table 15, read-out: hIDO EC50) [µM] | EC50 [3, 10] [µM] | IC50 ([4]; hIDO IC50, Table 15) [µM] | further results
NOCc1cccc(F)c1 [compound 762, O-(3-fluorobenzyl)hydroxylamine] | – | – | – | mIDO LD50 [1, 6]: D (D>1000 μM); EC50 ([2]; Table 16, read-out: hIDO EC50): < 10 µM; EC50 [3, 7]: < 10 µM; IC50 ([4]; hIDO IC50, Table 16): < 10 µM; hIDO LD50 [5, 8]: D (D>1000 μM)
NOCc1cc([N+](=O)[O-])cc([N+](=O)[O-])c1 [compound 1657, O-(3,5-dinitrobenzyl)hydroxylamine] | – | – | – | mIDO LD50 [1, 6]: D (D>1000 μM); EC50 ([2]; hIDO EC50, Table 16): < 10 µM; EC50 ([3]; mIDO EC50, Table 16, cells expressing murine IDO): < 10 µM; IC50 ([4]; hIDO IC50, Table 16): < 10 µM; hIDO LD50 [5, 8]: D (D>1000 μM)
NOCc1cccc(Cl)c1 [compound 1672, O-(3-chlorobenzyl)hydroxylamine] | – | – | – | mIDO LD50 [1]: D (key: A: <10 μM; B: 10-100 μM; C: 100-1000 μM; D>1000 μM); EC50 ([2]; Table 16, read-out: hIDO EC50): < 10 µM; EC50 [3, 7]: < 10 µM; IC50 ([4]; hIDO IC50, Table 16): < 10 µM; hIDO LD50 [5]: D (key: A: <10 μM; B: 10-100 μM; C: 100-1000 μM; D>1000 μM)
NOCc1ccc2ccccc2c1 [compound 1736, O-(naphthalen-2-ylmethyl)hydroxylamine] | < 10 | < 10 | < 10 | mIDO LD50 [1, 9]: D (D>1000 μM); hIDO LD50 [5, 11]: D (D>1000 μM)
NOCc1cccnc1 [compound 1738, O-(pyridin-3-ylmethyl)hydroxylamine] | < 10 | 10 to 100 | 10 to 100 | mIDO LD50 [1, 9]: D (D>1000 μM); hIDO LD50 [5, 11]: D (D>1000 μM)
NOCc1c[nH]c2ccccc12 [compound 1742, O-((1H-indol-3-yl)methyl)hydroxylamine] | < 10 | < 10 | 10 to 100 | mIDO LD50 [1, 9]: D (D>1000 μM); hIDO LD50 [5, 11]: D (D>1000 μM)
NOCc1cc(Cl)cc(Cl)c1 [compound 1769, O-(3,5-dichlorobenzyl)hydroxylamine] | < 10 | < 10 | < 10 | mIDO LD50 [1]: D (key: A: <10 μM; B: 10-100 μM; C: 100-1000 μM; D>1000 μM); hIDO LD50 [5]: D (key: A: <10 μM; B: 10-100 μM; C: 100-1000 μM; D>1000 μM)
NOCc1cc(F)cc(F)c1 [compound 1770, O-(3,5-difluorobenzyl)hydroxylamine] | < 10 | – | < 10 | mIDO LD50 [1]: D (key: A: <10 μM; B: 10-100 μM; C: 100-1000 μM; D>1000 μM); EC50 ([3]; Table 15, printed as a number instead of a range class, read-out: mIDO EC50): 2.3 µM; hIDO LD50 [5]: D (key: A: <10 μM; B: 10-100 μM; C: 100-1000 μM; D>1000 μM)
NOCc1ccccc1I [compound 1817, O-(2-iodobenzyl)hydroxylamine] | – | – | – | mIDO LD50 [1]: D (key: A: <10 μM; B: 10-100 μM; C: 100-1000 μM; D>1000 μM); EC50 ([2]; Table 16, read-out: hIDO EC50): < 10 µM; EC50 [3, 7]: 10 to 100 µM; IC50 ([4]; hIDO IC50, Table 16): < 10 µM; hIDO LD50 [5]: D (key: A: <10 μM; B: 10-100 μM; C: 100-1000 μM; D>1000 μM)
NOCc1ccccc1-c1ccncc1 [compound 1889, O-(2-(pyridin-4-yl)benzyl)hydroxylamine] | < 10 | 100 to 1000 | 10 to 100 | –
NOCc1cc(Cl)ccc1-c1ccc(Cl)cc1 [compound 1892, O-((4,4′-dichlorobiphenyl-2-yl)methyl)hydroxylamine] | < 10 | < 10 | < 10 | –
NOCc1cc(Cl)cc(-c2ccc(Cl)cc2)c1 [compound 1893, O-((4′,5-dichlorobiphenyl-3-yl)methyl)hydroxylamine] | < 10 | 10 to 100 | < 10 | –
NOC1CCCc2ccccc21 (stereo not drawn) [compound 1895, O-(1,2,3,4-tetrahydronaphthalen-1-yl)hydroxylamine] | < 10 | 10 to 100 | < 10 | –
CNC(=O)C(ON)c1ccccc1 (stereo not drawn) [compound 1897, 2-(aminooxy)-N-methyl-2-phenylacetamide] | < 10 | < 10 | < 10 | –
CNC(=O)CCC(ON)c1ccccc1 (stereo not drawn) [compound 1898, 4-(aminooxy)-N-methyl-4-phenylbutanamide] | < 10 | 10 to 100 | 10 to 100 | –
NOc1cccc2ccccc12 [compound 1903, O-(naphthalen-1-yl)hydroxylamine] | 10 to 100 | 10 to 100 | < 10 | –
COc1ccc(-c2ccc(Cl)cc2CON)cc1 [compound 1914, O-((4-chloro-4′-methoxybiphenyl-2-yl)methyl)hydroxylamine] | < 10 | 10 to 100 | < 10 | –
NOCc1cc(Cl)ccc1-c1ccccc1Cl [compound 1915, O-((2′,4-dichlorobiphenyl-2-yl)methyl)hydroxylamine] | 10 to 100 | 100 to 1000 | < 10 | –
NOCc1cc(Cl)ccc1-c1ccccc1 [compound 1916, O-((4-chlorobiphenyl-2-yl)methyl)hydroxylamine] | < 10 | 10 to 100 | < 10 | –
NOCc1cc(Cl)ccc1-c1ccc(C(F)(F)F)cc1 [compound 1917, O-((4-chloro-4′-(trifluoromethyl)biphenyl-2-yl)methyl)hydroxylamine] | < 10 | 10 to 100 | < 10 | –
NOCc1cc(Cl)ccc1-c1cccc(Cl)c1 [compound 1918, O-((3′,4-dichlorobiphenyl-2-yl)methyl)hydroxylamine] | < 10 | 10 to 100 | < 10 | –
NOCc1cc(Cl)ccc1-c1ccc(Cl)c(Cl)c1 [compound 1919, O-((3′,4,4′-trichlorobiphenyl-2-yl)methyl)hydroxylamine] | < 10 | 10 to 100 | < 10 | –
NOC(c1ccccc1)C1CCCCC1 (stereo not drawn) [compound 1920, O-(cyclohexyl(phenyl)methyl)hydroxylamine] | < 10 | 10 to 100 | < 10 | –
NOC(Cc1ccccc1)c1ccccc1 (stereo not drawn) [compound 1921, O-(1,2-diphenylethyl)hydroxylamine] | < 10 | 10 to 100 | < 10 | –
NOC(c1ccccc1)c1ccccc1 [compound 1922, O-benzhydrylhydroxylamine] | – | – | – | EC50 ([2]; Table 16, read-out: hIDO EC50): < 10 µM; EC50 [3, 7]: < 10 µM; IC50 ([4]; hIDO IC50, Table 16): < 10 µM
NOCc1cc(Cl)ccc1-c1cncnc1 [compound 1923, O-(5-chloro-2-(pyrimidin-5-yl)benzyl)hydroxylamine] | < 10 | < 10 | < 10 | –
NOC(CCc1ccccc1)c1ccccc1 (stereo not drawn) [compound 1924, O-(1,3-diphenylpropyl)hydroxylamine] | < 10 | 10 to 100 | < 10 | –
NOC(CC1CCCCC1)c1ccccc1 (stereo not drawn) [compound 1925, O-(2-cyclohexyl-1-phenylethyl)hydroxylamine] | < 10 | 10 to 100 | 10 to 100 | –
